Legend:
[1] = tested on: ADP-Induced Platelet Aggregation; assay: Inhibition of ADP-induced platelet aggregation in rabbit platelet-rich plasma (microplate method); type: cell-based; conditions: Oryctolagus cuniculus, Platelet, rabbit PRP, inducer ADP; for IC50: absorbance 655 nm, read-out: IC50 (Mean ± SE), ADP-induced platelet aggregation
Protocol: Example 62 Investigation on Inhibition of ADP-Induced Platelet Aggregation in Rabbit
A blood sample was collected from ear vein of a healthy male rabbit, added with 3.8% sodium citrate for anticoagulation and then centrifuged at 800 r/min for 10 min to prepare platelet-rich plasma (PRP) and at 3,000 r/min for 10 min to prepare platelet-poor plasma (PPP). The investigation on the plasma should be performed within 0.5-3 h after the preparation.
2. Determination of Platelet Aggregation by Microplate Method
The drugs to be tested were weighed and added with an appropriate amount of DMSO to prepare a series of 10 mM stock solutions, which were respectively diluted to prepare 10× stock solutions with normal saline for further use.
Several wells of a microplate were selected as test wells, which were added with 135 μL of PRP and then respectively added with 15 μL of the 10× stock solutions. A well in which 135 μL of PRP and 15 μL of normal saline were added was used as the vehicle control, and a well in which 135 μL of PPP and 15 μL of normal saline were added was used as the blank control. Duplicate wells were set for each test well. The plate was shaken, incubated at 37° C. for 5 min, and then measured for A0 at 655 nm. Subsequently, the microplate was added with 15 μL of an inducer […] (ADP) working solution (25 μmol/L) in each well, incubated at 37° C. under shaking and measured at 655 nm for A1, where the incubation time was determined according to the time in the pre-experiment when the maximum aggregation appeared. The platelet aggregation rate (AR) and platelet aggregation inhibition rate (AIR) were calculated according to the following formulas:
AR=(1−ARtest sample/ARcontrol)

[2] = tested on: carotid artery thrombus induced by ferric chloride; assay: Effect of intragastric administration on FeCl3-induced carotid arterial thrombosis in male SD rats; type: in vivo, male Sprague Dawley (SD) rats; conditions: for Wet weight of thrombus: daily for one week, male SD rats, 20% FeCl3
Protocol: Example 63 Effect of Intragastric Administration of Compound LY-26y on Arterial Thrombosis in Male Sprague Dawley (SD) Rats
1. Experimental animals: 50 male SD rats, 260-320 g (n=10).
2. Main reagents: ferric chloride, urethane, 0.5% CMC-Na, 0.9% NaCl.
The 50 male SD rats were randomly and averagely divided into five groups, respectively model group, low-dose LY-26y group (5 mg/kg), medium-dose LY-26y group (10 mg/kg), high-dose LY-26y group (20 mg/kg) and positive control group (10 mg/kg ticagrelor). After experiencing one-week adaptation, the rats in the experimental groups were treated by intragastric administration of LY-26y by at 9 am every day, and the model group was treated with 0.5% CMC-Na solution. After continuously treated for one week, the rats were anesthetized by intraperitoneal injection of 20% urethane ([…]) 8 min after the last administration. Then the anesthetized rats were placed on an insulation plate (to maintain body temperature) in a supine position, and a straight incision was made on the midline of the neck to expose the right common carotid artery. A plastic film (1.5×1.0 cm^2) was placed under the artery to protect the surrounding tissues. The filter paper was cut into a size of 1.0×0.8 cm^2, soaked with a 20% FeCl3 solution and then used to coat the exposed artery for 30 min to induce […] thrombosis. After 2 h of the administration, a 1.5-cm […] carotid artery was collected and weighed, and then the blood vessel was cut to remove the thrombus therein to measure the weight of the blood vessel wall, where the weight difference was the weight of thrombus.

| SMILES | IC50 [1] | also measured |
| --- | --- | --- |
| CCOC(=O)c1c(C)nc(-c2cccc(C#N)c2)n1OCc1ccc(C#N)cc1 [LY-26y, ethyl 1-[(4-cyanobenzyl)oxy]-2-(3-cyanophenyl)-4-methyl-1H-imidazole-5-carboxylate] | 4.237 ± 0.0156 µM | Wet weight of thrombus ([2]; 5 mg/kg intragastric): 6.38 ± 0.18 mg; Wet weight of thrombus ([2]; 10 mg/kg intragastric): 4.89 ± 0.33 mg; Wet weight of thrombus ([2]; 20 mg/kg intragastric): 4.39 ± 0.26 mg; Effect on weight of the FeCl3-induced arterial thrombus in rats ([2]; intragastric administration, in words): significantly reduced |
| Cc1ccc(COn2c(-c3cccc(C#N)c3)nc(C)c2C(=O)O)cc1 [LY-27s, 4-methyl-2-(3-cyanophenyl)-1-(4-methylbenzyl)oxy-1H-imidazole-5-carboxylic acid] | 6.56 ± 0.357 µM | – |
| Cc1nc(-c2cccc(C#N)c2)n(OCc2ccc(C#N)cc2)c1C(=O)O [LY-27y, 4-methyl-2-(3-cyanophenyl)-1-(4-cyanobenzyl)oxy-1H-imidazole-5-carboxylic acid] | 3.88 ± 0.269 µM | – |
| CCCNC(=O)c1c(C)nc(-c2cccc(C#N)c2)n1OC [LY-28a, 4-methyl-2-(3-cyanophenyl)-1-methoxy-N-propyl-1H-imidazole-5-carboxamide] | 9.57 ± 0.226 µM | – |
| COn1c(-c2cccc(C#N)c2)nc(C)c1C(=O)NC(C)C [LY-28b, 4-methyl-2-(3-cyanophenyl)-1-methoxy-N-isopropyl-1H-imidazole-5-carboxamide] | 11.2 ± 0.966 µM | – |
| COn1c(-c2cccc(C#N)c2)nc(C)c1C(=O)Nc1ccccc1 [LY-28c, 2-(3-cyanophenyl)-1-methoxy-4-methyl-N-phenyl-1H-imidazole-5-carboxamide] | 15.9 ± 1.2 µM | – |
| CCOC(=O)c1[nH]c(-c2cccc(C#N)c2)nc1C [LY-29, ethyl 2-(3-cyanophenyl)-4-methyl-1H-imidazole-5-carboxylate] | – | inhibition at 30 µM ([1]; 30 μM, read-out: Inhibition rate of target compounds on platelet aggregation at 30 μM): 32.5% |
| CCOC(=O)c1c(C)nc(-c2cccc(C#N)c2)n1C [LY-30a, ethyl 2-(3-cyanophenyl)-1,4-dimethyl-1H-imidazole-5-carboxylate] | 22.1 ± 0.703 µM | – |
| CCCSc1nc(N[C@@H]2C[C@H]2c2ccc(F)c(F)c2)c2nnn([C@@H]3C[C@H](OCCO)[C@@H](O)[C@H]3O)c2n1 [Ticagrelor, reference compound] | 7.21 ± 0.251 µM | Wet weight of thrombus ([2]; 10 mg/kg intragastric): 5.01 ± 0.16 mg |
